ChEMBL document CHEMBL1201862, “PubChem BioAssay data set” (2004)
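A five-concentration, 48-hour dose response in 96-well plates underlies each endpoint, interpolated linearly between surrounding concentrations. At the GI50, growth is halved.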 The source made the active and inactive calls. No stated cut-off is given here; in the data, active = GI50 up to about 1.1 µM and inactive = higher.

Key:
Assay in all cases: NCI-60 cell line screen, 48 h
[1] = system: SK-MEL-5
[2] = system: CAKI-1
[3] = system: SF-539
[4] = system: Hs-578T
[5] = system: UO-31
[6] = system: PC-3
[7] = system: SN12C
[8] = system: UACC-257
[9] = system: RPMI-8226
[10] = system: SK-MEL-28
[11] = system: A498
[12] = system: T47D
[13] = system: Malme-3M
[14] = system: SF-268
[15] = system: EKVX
[16] = system: DU-145
[17] = system: HT-29
[18] = system: LOX IMVI
[19] = system: HOP-62
[20] = system: HCC 2998

Structure (SMILES)	GI50 [1]	GI50 [2]	GI50 [3]	GI50 [4]	GI50 [5]	GI50 [6]	GI50 [7]	GI50 [8]	GI50 [9]	GI50 [10]	GI50 [11]	GI50 [12]	GI50 [13]	GI50 [14]	GI50 [15]	GI50 [16]	GI50 [17]	GI50 [18]	GI50 [19]	GI50 [20]
COc1ccc(/N=C/N(C)C)c(C)c1	3.01 µM (inactive)	35.6 µM (inactive)	22.9 µM (inactive)	1.52 µM (inactive)	26.1 µM (inactive)	3.17 µM (inactive)	14.2 µM (inactive)	2.42 µM (inactive)	> 100 µM (inactive)	12.6 µM (inactive)	18.1 µM (inactive)	9.55 µM (inactive)	9.57 µM (inactive)	19 µM (inactive)	10.6 µM (inactive)	4.16 µM (inactive)	5.4 µM (inactive)	3.15 µM (inactive)	18.3 µM (inactive)	–
Clc1ccc2nc3[nH]nc(Cl)c3nc2c1	27.1 µM (inactive)	49.1 µM (inactive)	40.8 µM (inactive)	22.7 µM (inactive)	22.8 µM (inactive)	34.6 µM (inactive)	38.5 µM (inactive)	66.8 µM (inactive)	47.4 µM (inactive)	84.7 µM (inactive)	46.2 µM (inactive)	44.1 µM (inactive)	–	47.9 µM (inactive)	16.7 µM (inactive)	50.7 µM (inactive)	59.3 µM (inactive)	–	53.5 µM (inactive)	38.4 µM (inactive)
Cc1n[nH]c(=O)n1N1C(=O)c2ccccc2C1=O	> 100 µM (inactive)	> 100 µM (inactive)	> 100 µM (inactive)	> 100 µM (inactive)	> 100 µM (inactive)	> 100 µM (inactive)	> 100 µM (inactive)	> 100 µM (inactive)	–	> 100 µM (inactive)	> 100 µM (inactive)	> 100 µM (inactive)	> 100 µM (inactive)	–	> 100 µM (inactive)	> 100 µM (inactive)	> 100 µM (inactive)	> 100 µM (inactive)	> 100 µM (inactive)	> 100 µM (inactive)
CCCCSC1=N/C(=C\c2ccco2)C(=O)N1	35.4 µM (inactive)	74.5 µM (inactive)	–	29.9 µM (inactive)	54 µM (inactive)	46.1 µM (inactive)	99.1 µM (inactive)	34.8 µM (inactive)	34.1 µM (inactive)	42.5 µM (inactive)	24.2 µM (inactive)	16.5 µM (inactive)	29.2 µM (inactive)	41.3 µM (inactive)	36.6 µM (inactive)	67.8 µM (inactive)	47.6 µM (inactive)	–	> 100 µM (inactive)	30 µM (inactive)
CCCCCCCCCCCCCCCCC(=O)NCC(=O)NCC(=O)NC(Cc1ccccc1)C(=O)Oc1ccc([N+](=O)[O-])cc1 (stereo not drawn)	21.6 µM (inactive)	17.2 µM (inactive)	27.6 µM (inactive)	> 100 µM (inactive)	67.9 µM (inactive)	31.5 µM (inactive)	19.7 µM (inactive)	23.9 µM (inactive)	21 µM (inactive)	15.8 µM (inactive)	> 100 µM (inactive)	30.7 µM (inactive)	–	23.3 µM (inactive)	37.8 µM (inactive)	> 100 µM (inactive)	29.3 µM (inactive)	20.4 µM (inactive)	22 µM (inactive)	17.7 µM (inactive)
COc1ccc(/N=N/C(=N/NC(=O)c2ccc(C)cc2)c2ccc(N(CCC#N)CCC#N)cc2OC)cc1	> 100 µM (inactive)	> 100 µM (inactive)	–	> 100 µM (inactive)	> 100 µM (inactive)	> 100 µM (inactive)	> 100 µM (inactive)	> 100 µM (inactive)	–	> 100 µM (inactive)	> 100 µM (inactive)	> 100 µM (inactive)	> 100 µM (inactive)	> 100 µM (inactive)	> 100 µM (inactive)	> 100 µM (inactive)	> 100 µM (inactive)	> 100 µM (inactive)	> 100 µM (inactive)	> 100 µM (inactive)
Cc1c(/C=N\NC(=S)N2CCN(C(=S)N/N=C\c3c(C)n(C)n(-c4ccccc4)c3=O)CC2)c(=O)n(-c2ccccc2)n1C	> 100 µM (inactive)	82.6 µM (inactive)	> 100 µM (inactive)	33 µM (inactive)	> 100 µM (inactive)	32.9 µM (inactive)	–	26.8 µM (inactive)	–	–	65.3 µM (inactive)	36.1 µM (inactive)	72.4 µM (inactive)	> 100 µM (inactive)	71.6 µM (inactive)	56 µM (inactive)	13.1 µM (inactive)	–	37.2 µM (inactive)	45.4 µM (inactive)
Cc1ccc2c(O)c3c(cc2c1)C(=O)c1c2c(cc(O)c1C3=O)C1(C)OC(O2)C(O)C(N(C)C)C1O (stereo not drawn)	1.22 µM (inactive)	0.794 µM (active)	1.11 µM (active)	1.02 µM (active)	1.27 µM (inactive)	1.05 µM (active)	1.37 µM (inactive)	1.51 µM (inactive)	0.29 µM (active)	1.32 µM (inactive)	1.28 µM (inactive)	0.656 µM (active)	–	3.65 µM (inactive)	1.32 µM (inactive)	0.767 µM (active)	0.495 µM (active)	1.11 µM (active)	1.01 µM (active)	1.19 µM (inactive)
CCOC(=O)c1c(NC(=O)OC)c(C#N)c2n1CCCCC2	> 100 µM (inactive)	> 100 µM (inactive)	> 100 µM (inactive)	> 100 µM (inactive)	> 100 µM (inactive)	> 100 µM (inactive)	–	> 100 µM (inactive)	> 100 µM (inactive)	> 100 µM (inactive)	> 100 µM (inactive)	> 100 µM (inactive)	–	> 100 µM (inactive)	> 100 µM (inactive)	22.8 µM (inactive)	> 100 µM (inactive)	> 100 µM (inactive)	> 100 µM (inactive)	> 100 µM (inactive)
COC(=O)[C@@]12CSC[C@]1(C(=O)OC)N[C@@H](c1ccccc1O)C2	> 100 µM (inactive)	> 100 µM (inactive)	> 100 µM (inactive)	> 100 µM (inactive)	> 100 µM (inactive)	> 100 µM (inactive)	> 100 µM (inactive)	> 100 µM (inactive)	> 100 µM (inactive)	> 100 µM (inactive)	> 100 µM (inactive)	> 100 µM (inactive)	> 100 µM (inactive)	> 100 µM (inactive)	> 100 µM (inactive)	> 100 µM (inactive)	> 100 µM (inactive)	–	> 100 µM (inactive)	> 100 µM (inactive)
CC1(C)COP(=S)(c2ccccn2)O[C@@H]1c1ccccc1 (stereo partly drawn)	26.9 µM (inactive)	> 100 µM (inactive)	–	> 100 µM (inactive)	50.8 µM (inactive)	88.7 µM (inactive)	> 100 µM (inactive)	> 100 µM (inactive)	–	> 100 µM (inactive)	> 100 µM (inactive)	22.3 µM (inactive)	> 100 µM (inactive)	> 100 µM (inactive)	> 100 µM (inactive)	> 100 µM (inactive)	81.8 µM (inactive)	> 100 µM (inactive)	> 100 µM (inactive)	> 100 µM (inactive)
CN(N=O)C(=O)Nc1ccc(C(=O)O)cc1	> 100 µM (inactive)	> 100 µM (inactive)	> 100 µM (inactive)	> 100 µM (inactive)	> 100 µM (inactive)	> 100 µM (inactive)	> 100 µM (inactive)	> 100 µM (inactive)	> 100 µM (inactive)	> 100 µM (inactive)	> 100 µM (inactive)	> 100 µM (inactive)	–	> 100 µM (inactive)	> 100 µM (inactive)	> 100 µM (inactive)	> 100 µM (inactive)	> 100 µM (inactive)	> 100 µM (inactive)	> 100 µM (inactive)
CCCCCCC(=O)c1ccc2ccccc2c1O	> 100 µM (inactive)	43.2 µM (inactive)	52.7 µM (inactive)	56 µM (inactive)	47.6 µM (inactive)	61 µM (inactive)	–	32.7 µM (inactive)	98.4 µM (inactive)	> 100 µM (inactive)	0.318 µM (active)	34.8 µM (inactive)	–	34.2 µM (inactive)	25.4 µM (inactive)	26.6 µM (inactive)	25.1 µM (inactive)	42.1 µM (inactive)	> 100 µM (inactive)	> 100 µM (inactive)
CCCCC/C=C1/CC(CO)(COC(=O)CC(C(C)C)C(C)C)OC1=O (stereo not drawn)	9.95 µM (inactive)	10.7 µM (inactive)	–	2.28 µM (inactive)	11.9 µM (inactive)	10.1 µM (inactive)	12.4 µM (inactive)	21.4 µM (inactive)	–	13 µM (inactive)	13 µM (inactive)	17.5 µM (inactive)	3.27 µM (inactive)	16.4 µM (inactive)	14.2 µM (inactive)	13.4 µM (inactive)	19.5 µM (inactive)	–	7.74 µM (inactive)	16.7 µM (inactive)
CN(C)CCCN1c2ccc(O)cc2Sc2ccc(Cl)cc21 [7-HYDROXYCHLORPROMAZINE]	13.8 µM (inactive)	4.2 µM (inactive)	14.6 µM (inactive)	4.04 µM (inactive)	9.53 µM (inactive)	5.33 µM (inactive)	10.3 µM (inactive)	1.71 µM (inactive)	4.5 µM (inactive)	11.1 µM (inactive)	16.5 µM (inactive)	21 µM (inactive)	10.3 µM (inactive)	6.34 µM (inactive)	18.4 µM (inactive)	17.9 µM (inactive)	3.48 µM (inactive)	6.71 µM (inactive)	15.1 µM (inactive)	–
